Test results reported in patent US20140005163A1 (NOVARTIS AG, priority 2010, published 2014).

Experiments:
[1] = Cellular CaCo2 permeability assay from apical to basal (A-B); assay type: in vitro ADME; details: human, Caco-2, read-out: Pe A-B (permeability)
Text: The permeability in 10^−6 cm/s of compounds of formula (I) have been confirmed for selected example using a cellular CaCo2 permeability assay from apical to basal (A-B): […]

PI3K gamma = biological target: T1, PI3K gamma (Homo sapiens, UniProt P48736); experiment: PI3K gamma kinase assay (Kinase-Glo luminescence); assay type: biochemical
T1 construct: His tag (C); made in house; host or cells: baculovirus (pVL1393); Tn5 or TiniPro insect cells; construct from Roger Williams lab, MRC LMB
How it was run: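 Luminescent ATP-depletion (Kinase-Glo) assay with 150 nM PI3Kγ, 1 μM ATP and 10 μg/mL phosphatidylinositol in 10 mM Tris-HCl pH 7.5, 3 mM MgCl2, 50 mM NaCl, 0.05% CHAPS, 1 mM DTT; 120 min at room temperature. Eight-point dilutions; IC50 by four-parameter logistic fit.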

T1 sequence (P48736 144-1102 limits assumed): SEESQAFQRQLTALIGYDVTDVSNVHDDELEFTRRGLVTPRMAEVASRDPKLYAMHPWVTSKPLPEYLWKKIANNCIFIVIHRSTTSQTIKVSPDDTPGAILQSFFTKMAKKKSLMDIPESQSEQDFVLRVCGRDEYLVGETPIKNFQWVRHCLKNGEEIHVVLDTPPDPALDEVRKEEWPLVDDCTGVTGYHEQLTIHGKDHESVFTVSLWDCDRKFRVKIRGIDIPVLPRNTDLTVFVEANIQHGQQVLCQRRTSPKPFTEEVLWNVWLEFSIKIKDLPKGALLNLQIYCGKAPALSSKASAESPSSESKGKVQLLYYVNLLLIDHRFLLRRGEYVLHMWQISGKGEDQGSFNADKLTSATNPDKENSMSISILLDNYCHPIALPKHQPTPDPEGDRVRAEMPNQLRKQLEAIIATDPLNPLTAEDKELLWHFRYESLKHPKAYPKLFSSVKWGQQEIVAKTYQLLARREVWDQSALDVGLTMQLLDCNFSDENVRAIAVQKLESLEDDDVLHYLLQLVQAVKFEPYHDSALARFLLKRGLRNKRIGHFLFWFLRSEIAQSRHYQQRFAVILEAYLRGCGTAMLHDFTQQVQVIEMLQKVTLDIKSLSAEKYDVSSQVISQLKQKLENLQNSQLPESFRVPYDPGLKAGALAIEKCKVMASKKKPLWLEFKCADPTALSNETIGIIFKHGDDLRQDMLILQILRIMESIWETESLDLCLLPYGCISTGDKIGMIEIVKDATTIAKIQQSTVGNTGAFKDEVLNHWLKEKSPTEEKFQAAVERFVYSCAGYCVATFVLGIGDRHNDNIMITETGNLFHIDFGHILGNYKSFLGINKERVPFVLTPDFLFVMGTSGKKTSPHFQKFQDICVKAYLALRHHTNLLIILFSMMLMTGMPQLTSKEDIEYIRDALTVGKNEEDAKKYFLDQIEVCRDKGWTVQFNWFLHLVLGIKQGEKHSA

SMILES	Papp A→B [1]	IC50 (PI3K gamma)
CCOc1cncc(-c2ccc3ncc4c(c3c2)n(-c2cn(C)nc2C)c(=O)n4C)c1 [Example 56.1, 1-(1,3-Dimethyl-1H-pyrazol-4-yl)-8-(5-ethoxy-pyridin-3-yl)-3-methyl-1,3-dihydro-imidazo[4,5-c]quinolin-2-one]	39.7 ×10⁻⁶ cm/s	123 nM
COc1ccc(-c2ccc3ncc4[nH]c(=O)n(-c5cc(C)nn5C)c4c3n2)cc1OC [Example 252, 8-(3,4-Dimethoxy-phenyl)-1-(2,5-dimethyl-2H-pyrazol-3-yl)-1,3-dihydro-1,3,5,9-tetraaza-cyclopenta[a]naphthalen-2-one]	29.4 ×10⁻⁶ cm/s	45 nM
COc1cncc(-c2ccc3ncc4c(c3c2)n(-c2cn(C)nc2C)c(=O)n4C)c1 [Example 12, 1-(1,3-Dimethyl-1H-pyrazol-4-yl)-8-(5-methoxy-pyridin-3-yl)-3-methyl-1,3-dihydro-imidazo[4,5-c]quinolin-2-one]	24 ×10⁻⁶ cm/s	92 nM

Continued, values first:

Papp A→B [1]	IC50 (PI3K gamma)	SMILES
26.6 ×10⁻⁶ cm/s	319 nM	Cc1nn(C)cc1-n1c(=O)n(C)c2cnc3ccc(-c4cnc(N(C)C)nc4)cc3c21 [Example 6.2, 8-(2-Dimethylamino-pyrimidin-5-yl)-1-(1,3-dimethyl-1H-pyrazol-4-yl)-3-methyl-1,3-dihydro-imidazo[4,5-c]quinolin-2-one]
28.6 ×10⁻⁶ cm/s	246 nM	CCOc1ccc(-c2ccc3ncc4c(c3c2)n(-c2cn(C)nc2C)c(=O)n4C)cn1 [Example 3.1, 1-(1,3-Dimethyl-1H-pyrazol-4-yl)-8-(6-ethoxy-pyridin-3-yl)-3-methyl-1,3-dihydro-imidazo[4,5-c]quinolin-2-one]
